# Reference: the supplement of paper PMC10307832
# Legend:
# Assay in all cases: relative viability (nuclei count vs DMSO), 5 days (fraction); higher = more cells survive
# [1] = compound: CN1C=C(C2=CC=CC=C21)/C=C\3/C4=C(C=CC=N4)NC3=O + Cc1nc(NC(=O)N2CCC[C@H]2C(N)=O)sc1-c1ccnc(C(C)(C)C(F)(F)F)c1 [Alpelisib] (partner 2 µM)
# Method in brief: (§1)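 Relative viability divides the nuclei count in treated wells by that in vehicle wells. Lung cancer cell lines were seeded in 1536-well plates, dosed by pin tool the next day, and fixed and stained after 5 days in one step with final 0.05% Triton X-100, 1% formaldehyde and 1 ug/ml Hoechst. Dosing was a single drug or a fixed anchor-drug dose plus five library-drug doses (not always all listed) in √10 steps, and values are medians of duplicate plates imaged at 4×.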
# [2] = compound: CN1C=C(C2=CC=CC=C21)/C=C\3/C4=C(C=CC=N4)NC3=O + CC(=O)Nc1cccc(-n2c(=O)n(C3CC3)c(=O)c3c(Nc4ccc(I)cc4F)n(C)c(=O)c(C)c32)c1 [Trametinib] (partner 0.02 µM)
# Method in brief: as §1
# Trametinib + Pictilisib = compound: CC(=O)Nc1cccc(-n2c(=O)n(C3CC3)c(=O)c3c(Nc4ccc(I)cc4F)n(C)c(=O)c(C)c32)c1 [Trametinib] + CS(=O)(=O)N1CCN(Cc2cc3nc(-c4cccc5[nH]ncc45)nc(N4CCOCC4)c3s2)CC1 [Pictilisib] (partner 1 µM)
# Method in brief: as §1
# [3] = compound: CN1C=C(C2=CC=CC=C21)/C=C\3/C4=C(C=CC=N4)NC3=O + COc1cc2c(Oc3ccc(NC(=O)C4(C(=O)Nc5ccc(F)cc5)CC4)cc3F)ccnc2cc1OCCCN1CCOCC1 [Foretinib] (partner 0.25 µM)
# Method in brief: as §1
Cell Line,relative viability ([1]; first compound 0.02 µM),relative viability ([1]; first compound 0.06325 µM),relative viability ([1]; first compound 0.2 µM),relative viability ([1]; first compound 0.6325 µM),relative viability ([1]; first compound 2 µM),relative viability ([2]; first compound 0.02 µM),relative viability ([2]; first compound 0.06325 µM),relative viability ([2]; first compound 0.2 µM),relative viability ([2]; first compound 0.6325 µM),relative viability ([2]; first compound 2 µM),relative viability (Trametinib + Pictilisib; first compound 0.0025 µM),relative viability (Trametinib + Pictilisib; first compound 0.007906 µM),relative viability (Trametinib + Pictilisib; first compound 0.025 µM),relative viability (Trametinib + Pictilisib; first compound 0.07906 µM),relative viability (Trametinib + Pictilisib; first compound 0.25 µM),relative viability ([3]; first compound 0.02 µM),relative viability ([3]; first compound 0.06325 µM),relative viability ([3]; first compound 0.2 µM),relative viability ([3]; first compound 0.6325 µM),relative viability ([3]; first compound 2 µM)
LXF-289,1.09,1.06,1.12,1.02,1.1,0.677,0.679,0.739,0.717,0.72,0.674,0.618,0.424,0.388,0.264,0.943,0.957,1.04,1.05,0.977
NCI-H23,0.628,0.522,,0.602,0.689,0.346,0.332,0.301,0.287,0.443,0.348,0.357,0.217,0.27,0.189,0.982,0.977,1.03,1.03,1.07
NCI-H322M,0.839,0.725,0.773,0.753,0.708,0.476,0.503,0.51,0.468,0.553,0.522,0.486,0.35,0.344,0.336,0.905,0.993,0.887,0.946,1.12
NCI-H358,0.824,0.776,0.752,0.833,0.791,0.12,0.127,0.116,0.136,0.117,0.311,0.328,0.233,0.22,0.363,0.693,0.622,0.815,0.637,0.687
NCI-H441,0.795,,0.898,0.91,0.881,0.468,0.511,0.492,0.544,0.52,0.44,0.306,0.234,0.214,0.163,0.943,0.772,0.967,1.02,0.984
NCI-H460,0.539,0.466,0.53,,0.391,0.304,0.158,0.0911,0.0905,0.12,0.302,0.23,0.156,0.125,0.0758,1.09,0.967,1.05,0.986,0.975
NCI-H520,0.796,0.69,0.859,1.02,1.04,0.542,0.589,0.621,0.716,0.68,0.294,0.292,0.259,0.195,0.217,0.639,0.773,0.847,0.717,0.937
NCI-H596,0.545,0.413,0.529,0.49,0.493,0.741,0.781,0.755,0.744,0.867,0.367,0.316,0.338,0.314,0.33,0.963,0.89,0.871,0.742,0.855
NCI-H647,0.977,0.948,0.904,0.951,1.14,0.532,0.404,0.41,0.38,0.404,0.348,0.301,0.235,0.206,0.127,1.24,1.24,1.04,1.17,1.01
NCI-H650,1.07,1.12,,1.24,1.09,0.928,0.943,,0.942,0.907,1.05,1.18,0.998,0.919,0.565,1.05,0.938,,1.02,1
NCI-H661,0.889,0.591,0.423,0.402,0.591,0.615,0.65,0.56,0.533,0.589,0.377,0.426,0.222,0.273,0.257,1.11,0.965,1.04,1.05,1.04
NCI-H727,0.48,0.533,0.307,0.466,0.604,0.461,0.344,0.361,0.373,0.401,0.333,0.207,0.176,0.149,0.25,0.7,0.664,0.878,0.817,0.665
NCI-H838,0.603,0.859,0.792,0.901,0.937,0.467,0.413,0.527,0.469,0.459,0.351,0.415,,0.319,0.281,0.778,0.853,1.03,0.894,0.92
NCI-H1355,0.663,0.66,0.739,0.468,0.547,0.336,0.361,0.423,0.274,0.3,0.339,0.313,0.199,0.228,0.214,0.957,0.893,0.958,0.772,0.766
NCI-H1395,1.11,1.08,,1.3,0.928,0.946,0.976,1.01,0.98,1.07,0.607,0.631,0.576,0.453,0.65,0.889,0.942,0.864,0.992,0.868
NCI-H1437,0.877,0.897,1.15,1.1,1.16,0.596,0.593,0.545,0.453,0.531,0.151,0.144,0.113,0.129,0.148,1.34,1.22,1.34,1.31,1.3
